Data on four molecules can be found in patent US12642783B2, “Method for treating vaso occlusive crises associated with Sickle cell disease” (Nicox SA, priority 2020, dated 2026).

For data set [1], the system named is vaso-occlusive crises. Conditions: sickle cell disease; cited from earlier work.
Data set [2] has as its system blood pressure. Particulars: 3 pivotal trials, 2,734 patients with osteoarthritis of the hip or knee; cited from earlier work.
Data set [3] has as its system Nitrite. The experiment in a line: Plasma nitrite levels after intravenous administration in Sickle Cell mouse model (thrombin challenge). It counts as in vivo. Conditions: Homozygous Sickle Cell transgenic mice, 15 mg/kg intravenous, at one hour after thrombin (FIG. 1). Here is the method:
(§1) This trial was conducted to assess the efficacy of 4-(nitrooxy)butyl-(2S)-2-(6-methoxy-2-naphthyl) propanoate (naproxcinod) to increase Nitrite (a precursor to NO), and cGMP in Homozygous Townes Sickle Cell transgenic mice.
(§2) Homozygous Sickle Cell transgenic mice were treated with either 4-(nitrooxy)butyl-(2S)-2-(6-methoxy-2-naphthyl) propanoate (naproxcinod) (15 mg/kg) or naproxen (15 mg/kg—as a control) or saline (as a vehicle control) by intravenous injection. After one hour, the mice were injected with thrombin (1 u/20 g) to induce platelet activation. Blood was drawn at […] after thrombin administration. Plasma nitrite levels were measured as a marker of nitric oxide bioavailability. cGMP levels were measured after addition of IBMX (3-Isobutyl-1-methylxanthine) (100 uM) to prevent cGMP degradation. Platelets were isolated and activation measured by surface expression of p-selectin.

The test system of data set [4] is cGMP. The experiment in a line: cGMP levels after intravenous administration in Sickle Cell mouse model (thrombin challenge). It counts as in vivo, mice. Conditions: for cGMP levels compared to thrombin alone or naproxen administration: Homozygous Sickle Cell transgenic mice, 15 mg/kg intravenous, p<0.01 (FIG. 2). The procedure: as §1, §2
Data set [5] concerns osteoarthritis (OA) of the knee. Particulars: human studies, OA of the knee patients; cited from earlier work.
For data set [6] the following is noted: approved package insert (Novartis, 2019); cited from earlier work.

For `NC(=O)CC[C@H](N)C(=O)O` [Endari, L-glutamine], the “frequency of vaso-occlusive crises” value in data set [1] was “reduce the frequency”.

Consider `NC(=O)NO` [Droxia, hydroxyurea], for which the “frequency of vaso-occlusive crises” value in data set [1] was “reduce the frequency”.

For the molecule `COc1ccc2cc([C@H](C)C(=O)OCCCCO[N+](=O)[O-])ccc2c1` [naproxcinod, 4-(nitrooxy)butyl-(2S)-2-(6-methoxy-2-naphthyl) propanoate], in data set [2], the “hypertensive burden induced by most NSAIDs” value is “reduce some of the hypertensive burden”. Further, the “nitrite concentration compared to thrombin alone or naproxen administration” value in data set [3] is “statistically greater”. The “cGMP levels compared to thrombin alone or naproxen administration” value in data set [4] (at 30 minutes after thrombin) and in data set [4] (at 60 minutes after thrombin) was “significantly increased” throughout. Besides, in data set [4] (Sickle cell animal model, summary statement), the “cyclic guanosine monophosphate level (cGMP level)” value is recorded as “able to increase”. Besides, the “management of the signs and symptoms of OA” value in data set [5] was “clinical efficacy and safety”.

B1: crizanlizumab-tmca (antibody, chains of the INN, looked up, V domains shown)
VH: QVQLVQSGAEVKKPGASVKVSCKVSGYTFTSYDINWVRQAPGKGLEWMGWIYPGDGSIKYNEKFKGRVTMTVDKSTDTAYMELSSLRSEDTAVYYCARRGEYGNYEGAMDYWGQGTLVTVSS
VL: DIQMTQSPSSLSASVGDRVTITCKASQSVDYDGHSYMNWYQQKPGKAPKLLIYAASNLESGVPSRFSGSGSGTDFTLTISSLQPEDFATYYCQQSDENPLTFGGGTKVEIK
notes: FDA-approved drug for vaso-occlusive crises complication in sickle cell disease
Turning to B1, in data set [6], the “incidence rate of arthralgia” value is given as 18% and the “incidence rate of back pain” value was 15%. Further, the “frequency of vaso-occlusive crises” value in data set [1] is “reduce the frequency”.
